This assay addresses NC1 (DGCR8 dimer) (Homo sapiens, UniProt Q8WYQ5, P351A). As to the kind of experiment: biochemical.

The values below come from article doi:10.1101/2020.02.18.955294v1 (biorxiv, 2020).

Chain of NC1 (DGCR8 dimer) (Q8WYQ5 276-751 P351A): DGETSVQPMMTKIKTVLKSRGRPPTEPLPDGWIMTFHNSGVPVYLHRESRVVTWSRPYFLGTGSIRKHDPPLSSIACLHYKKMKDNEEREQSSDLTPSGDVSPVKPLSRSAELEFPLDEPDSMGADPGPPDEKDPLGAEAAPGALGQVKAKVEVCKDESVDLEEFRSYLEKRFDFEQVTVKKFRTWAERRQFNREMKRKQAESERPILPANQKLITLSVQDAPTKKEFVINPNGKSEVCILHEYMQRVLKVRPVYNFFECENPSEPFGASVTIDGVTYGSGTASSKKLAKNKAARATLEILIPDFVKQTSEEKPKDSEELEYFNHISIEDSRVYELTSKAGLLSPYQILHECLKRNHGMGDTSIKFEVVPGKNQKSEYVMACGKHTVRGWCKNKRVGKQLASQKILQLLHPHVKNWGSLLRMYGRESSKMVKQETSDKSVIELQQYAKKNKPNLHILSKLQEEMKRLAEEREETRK

Regarding `C=CC1=C(C)C2=Cc3c(C=C)c(C)c4[n]3[Fe]([Cl])[n]3c(c(C)c(CCC(=O)O)c3=CC3=NC(=C4)C(C)=C3CCC(=O)O)=CC1=N2` [Fe(III) heme], the Kd is about 5 pM.
